According to ChEMBL document CHEMBL4308841, “Synthesis, in vitro antiproliferative activity, and kinase inhibitory effects of pyrazole-containing diarylureas and diarylamides” (Eur J Med Chem, 2018):

Legend:
TK-10 [1] = assay: Growth inhibition of human TK10 cells incubated for 48 hrs by sulforhodamine B assay; assay type: functional, cell-based; settings: TK-10, 48 h
RAW264.7 = assay: Cytotoxicity against mouse RAW264.7 cells by MTT assay; assay type: cell-based
[2] = molecular target: Serine/threonine-protein kinase A-Raf (Homo sapiens) (UniProt P10398); assay: Inhibition of human ARAF at 10 uM using MEK1 (K97R) as substrate after 40 mins in presence of [gamma33P]ATP by scintillation counting method relative to control
[3] = molecular target: RAF proto-oncogene serine/threonine-protein kinase (Homo sapiens) (UniProt P04049); assay: Inhibition of human c-RAF at 10 uM using MEK1 (K97R) as substrate after 40 mins in presence of [gamma33P]ATP by scintillation counting method relative to control
RAF proto-oncogene serine/threonine-protein kinase (Homo sapiens), sequence (P04049 whole entry): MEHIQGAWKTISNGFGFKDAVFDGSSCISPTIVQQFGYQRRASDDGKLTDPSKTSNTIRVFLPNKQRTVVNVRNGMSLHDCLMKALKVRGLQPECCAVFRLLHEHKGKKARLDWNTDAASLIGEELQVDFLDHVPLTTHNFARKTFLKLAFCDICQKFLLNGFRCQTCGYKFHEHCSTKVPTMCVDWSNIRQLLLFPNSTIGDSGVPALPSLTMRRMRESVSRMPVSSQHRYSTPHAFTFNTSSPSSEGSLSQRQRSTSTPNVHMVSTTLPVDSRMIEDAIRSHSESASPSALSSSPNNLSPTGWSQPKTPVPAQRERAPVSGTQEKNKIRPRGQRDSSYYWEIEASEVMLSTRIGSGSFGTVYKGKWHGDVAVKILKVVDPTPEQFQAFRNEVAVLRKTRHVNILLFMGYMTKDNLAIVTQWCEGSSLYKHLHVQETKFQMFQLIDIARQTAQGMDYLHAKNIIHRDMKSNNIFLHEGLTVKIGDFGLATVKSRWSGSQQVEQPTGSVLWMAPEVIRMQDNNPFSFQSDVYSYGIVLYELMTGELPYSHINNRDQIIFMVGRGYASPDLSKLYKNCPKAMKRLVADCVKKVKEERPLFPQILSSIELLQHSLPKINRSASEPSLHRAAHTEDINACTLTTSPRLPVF

[4] = molecular target: Epidermal growth factor receptor (Homo sapiens) (UniProt P00533); assay: Inhibition of human EGFR at 10 uM using poly[Glu:Tyr] (4:1) as substrate after 40 mins in presence of [gamma33P]ATP by scintillation counting method relative to control
Epidermal growth factor receptor (Homo sapiens), sequence (P00533 whole entry): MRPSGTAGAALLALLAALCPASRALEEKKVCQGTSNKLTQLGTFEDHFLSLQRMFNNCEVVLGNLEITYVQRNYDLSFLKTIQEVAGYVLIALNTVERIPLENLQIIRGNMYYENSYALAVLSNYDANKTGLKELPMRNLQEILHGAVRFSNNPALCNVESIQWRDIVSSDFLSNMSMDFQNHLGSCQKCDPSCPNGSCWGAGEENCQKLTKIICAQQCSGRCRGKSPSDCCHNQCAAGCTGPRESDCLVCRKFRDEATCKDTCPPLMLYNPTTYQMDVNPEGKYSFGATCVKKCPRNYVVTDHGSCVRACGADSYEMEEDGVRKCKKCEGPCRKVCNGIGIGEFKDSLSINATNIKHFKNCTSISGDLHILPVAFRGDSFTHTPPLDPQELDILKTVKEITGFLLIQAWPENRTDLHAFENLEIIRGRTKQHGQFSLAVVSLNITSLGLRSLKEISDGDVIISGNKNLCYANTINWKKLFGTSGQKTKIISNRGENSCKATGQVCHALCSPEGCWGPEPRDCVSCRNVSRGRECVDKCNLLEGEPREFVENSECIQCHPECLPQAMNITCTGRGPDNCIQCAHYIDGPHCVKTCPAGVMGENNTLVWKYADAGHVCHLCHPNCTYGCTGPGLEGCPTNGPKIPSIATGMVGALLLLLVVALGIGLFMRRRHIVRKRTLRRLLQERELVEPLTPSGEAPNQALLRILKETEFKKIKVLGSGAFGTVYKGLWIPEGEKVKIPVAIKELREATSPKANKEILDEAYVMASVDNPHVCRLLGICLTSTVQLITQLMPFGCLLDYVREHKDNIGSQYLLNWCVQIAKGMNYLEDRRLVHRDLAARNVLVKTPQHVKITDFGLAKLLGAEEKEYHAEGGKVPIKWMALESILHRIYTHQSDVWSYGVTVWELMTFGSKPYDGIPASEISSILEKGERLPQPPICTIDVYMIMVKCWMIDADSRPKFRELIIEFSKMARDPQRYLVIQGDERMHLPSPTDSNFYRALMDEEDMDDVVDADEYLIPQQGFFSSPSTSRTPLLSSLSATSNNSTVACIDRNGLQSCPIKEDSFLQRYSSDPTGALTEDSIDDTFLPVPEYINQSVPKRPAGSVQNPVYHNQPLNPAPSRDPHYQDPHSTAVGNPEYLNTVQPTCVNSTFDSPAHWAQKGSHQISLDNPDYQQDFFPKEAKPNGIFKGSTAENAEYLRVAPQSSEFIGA

[5] = molecular target: Receptor tyrosine-protein kinase erbB-4 (Homo sapiens) (UniProt Q15303); assay: Inhibition of human ERBB4 at 10 uM using poly[Glu:Tyr] (4:1) as substrate after 40 mins in presence of [gamma33P]ATP by scintillation counting method relative to control
[6] = molecular target: Mitogen-activated protein kinase 1 (Homo sapiens) (UniProt P28482); assay: Inhibition of human ERK2 at 10 uM using myelin basic protein as substrate after 40 mins in presence of [gamma33P]ATP by scintillation counting method relative to control
Mitogen-activated protein kinase 1 (Homo sapiens), sequence (P28482 whole entry): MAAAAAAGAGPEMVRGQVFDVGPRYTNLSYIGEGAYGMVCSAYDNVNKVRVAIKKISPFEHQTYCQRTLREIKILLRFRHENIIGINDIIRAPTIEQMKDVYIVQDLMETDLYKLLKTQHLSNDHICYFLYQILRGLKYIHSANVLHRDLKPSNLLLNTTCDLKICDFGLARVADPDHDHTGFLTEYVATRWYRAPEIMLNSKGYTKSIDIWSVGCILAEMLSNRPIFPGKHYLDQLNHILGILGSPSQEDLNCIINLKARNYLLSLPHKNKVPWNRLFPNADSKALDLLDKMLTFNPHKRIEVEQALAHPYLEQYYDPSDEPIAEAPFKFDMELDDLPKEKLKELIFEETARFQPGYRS

[7] = molecular target: Fibroblast growth factor receptor 1 (Homo sapiens) (UniProt P11362); assay: Inhibition of human FGFR1 at 10 uM using KKKSPGEYVNIEFG as substrate after 40 mins in presence of [gamma33P]ATP by scintillation counting method relative to control
[8] = molecular target: Receptor-type tyrosine-protein kinase FLT3 (Homo sapiens) (UniProt P36888); assay: Inhibition of human FLT3 at 10 uM using EAIYAAPFAKKK as substrate after 40 mins in presence of [gamma33P]ATP by scintillation counting method relative to control
Receptor-type tyrosine-protein kinase FLT3 (Homo sapiens), sequence (P36888 whole entry): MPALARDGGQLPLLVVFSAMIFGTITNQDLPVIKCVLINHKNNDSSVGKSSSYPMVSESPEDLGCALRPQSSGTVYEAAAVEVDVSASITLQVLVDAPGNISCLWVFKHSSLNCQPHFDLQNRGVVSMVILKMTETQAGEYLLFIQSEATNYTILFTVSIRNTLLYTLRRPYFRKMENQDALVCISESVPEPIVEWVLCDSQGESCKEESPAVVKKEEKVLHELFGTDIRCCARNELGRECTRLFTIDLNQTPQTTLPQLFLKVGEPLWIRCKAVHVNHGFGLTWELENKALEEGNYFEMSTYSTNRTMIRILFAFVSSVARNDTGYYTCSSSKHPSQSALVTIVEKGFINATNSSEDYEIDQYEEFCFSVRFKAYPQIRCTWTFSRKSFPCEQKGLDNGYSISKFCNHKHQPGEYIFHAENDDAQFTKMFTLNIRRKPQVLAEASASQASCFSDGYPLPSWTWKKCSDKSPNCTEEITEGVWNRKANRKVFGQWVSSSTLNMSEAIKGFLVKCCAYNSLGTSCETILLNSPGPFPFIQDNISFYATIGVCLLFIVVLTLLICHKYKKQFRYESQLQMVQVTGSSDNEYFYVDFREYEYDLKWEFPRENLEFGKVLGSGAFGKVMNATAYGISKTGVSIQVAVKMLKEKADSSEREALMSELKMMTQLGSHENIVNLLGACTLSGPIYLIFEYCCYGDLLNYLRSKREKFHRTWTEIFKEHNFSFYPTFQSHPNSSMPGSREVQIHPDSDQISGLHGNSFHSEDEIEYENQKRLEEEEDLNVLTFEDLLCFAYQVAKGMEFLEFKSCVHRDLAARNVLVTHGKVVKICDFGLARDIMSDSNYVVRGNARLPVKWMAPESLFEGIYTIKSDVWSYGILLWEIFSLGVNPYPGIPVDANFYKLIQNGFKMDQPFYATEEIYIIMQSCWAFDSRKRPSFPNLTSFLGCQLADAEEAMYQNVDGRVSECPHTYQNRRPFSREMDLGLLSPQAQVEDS

[9] = molecular target: Macrophage colony-stimulating factor 1 receptor (Homo sapiens) (UniProt P07333); assay: Inhibition of human FMS at 10 uM using poly[Glu:Tyr] (4:1) as substrate after 40 mins in presence of [gamma33P]ATP by scintillation counting method relative to control
[10] = molecular target: Tyrosine-protein kinase JAK1 (Homo sapiens) (UniProt P23458); assay: Inhibition of human JAK1 at 10 uM using poly[Glu:Tyr] (4:1) as substrate after 40 mins in presence of [gamma33P]ATP by scintillation counting method relative to control
[11] = molecular target: Vascular endothelial growth factor receptor 2 (Homo sapiens) (UniProt P35968); assay: Inhibition of human VEGFR2 at 10 uM using poly[Glu:Tyr] (4:1) as substrate after 40 mins in presence of [gamma33P]ATP by scintillation counting method relative to control
Vascular endothelial growth factor receptor 2 (Homo sapiens), sequence (P35968 whole entry): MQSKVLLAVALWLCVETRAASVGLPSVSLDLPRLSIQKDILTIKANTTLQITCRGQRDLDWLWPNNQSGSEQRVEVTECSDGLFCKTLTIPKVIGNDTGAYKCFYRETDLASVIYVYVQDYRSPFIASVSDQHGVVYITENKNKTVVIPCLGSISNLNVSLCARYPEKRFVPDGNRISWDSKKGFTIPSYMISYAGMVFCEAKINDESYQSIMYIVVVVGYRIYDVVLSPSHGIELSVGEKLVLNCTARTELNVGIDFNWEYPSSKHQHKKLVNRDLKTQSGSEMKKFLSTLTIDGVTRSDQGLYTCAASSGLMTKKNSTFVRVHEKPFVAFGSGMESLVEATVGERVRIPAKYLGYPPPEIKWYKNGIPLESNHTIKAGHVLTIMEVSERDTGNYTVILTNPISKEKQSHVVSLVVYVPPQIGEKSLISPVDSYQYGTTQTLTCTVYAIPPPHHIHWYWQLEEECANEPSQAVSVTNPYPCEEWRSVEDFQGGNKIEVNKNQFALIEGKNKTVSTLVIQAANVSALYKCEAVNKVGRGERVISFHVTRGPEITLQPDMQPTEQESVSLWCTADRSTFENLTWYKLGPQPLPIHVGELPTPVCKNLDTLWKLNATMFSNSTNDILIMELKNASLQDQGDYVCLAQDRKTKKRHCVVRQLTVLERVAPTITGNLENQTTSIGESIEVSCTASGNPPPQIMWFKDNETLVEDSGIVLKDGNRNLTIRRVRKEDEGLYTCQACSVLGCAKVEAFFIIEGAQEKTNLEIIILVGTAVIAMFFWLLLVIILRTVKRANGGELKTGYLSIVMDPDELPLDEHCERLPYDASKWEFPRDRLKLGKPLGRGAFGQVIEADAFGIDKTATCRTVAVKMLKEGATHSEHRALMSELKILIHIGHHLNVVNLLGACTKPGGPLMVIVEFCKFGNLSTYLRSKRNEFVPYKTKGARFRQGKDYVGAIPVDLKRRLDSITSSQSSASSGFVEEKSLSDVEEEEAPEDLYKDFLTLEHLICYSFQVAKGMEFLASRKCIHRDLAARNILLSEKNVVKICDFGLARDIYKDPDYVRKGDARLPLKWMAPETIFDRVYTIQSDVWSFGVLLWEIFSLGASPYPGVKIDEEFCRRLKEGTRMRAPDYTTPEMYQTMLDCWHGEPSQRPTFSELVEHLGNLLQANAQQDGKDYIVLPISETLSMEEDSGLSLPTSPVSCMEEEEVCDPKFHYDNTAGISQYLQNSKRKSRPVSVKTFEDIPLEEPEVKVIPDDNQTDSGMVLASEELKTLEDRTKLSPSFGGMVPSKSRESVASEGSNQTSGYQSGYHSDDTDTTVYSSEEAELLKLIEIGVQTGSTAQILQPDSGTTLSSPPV

[12] = molecular target: Platelet-derived growth factor receptor beta (Homo sapiens) (UniProt P09619); assay: Inhibition of human PDGFRb at 10 uM using poly[Glu:Tyr] (4:1) as substrate after 40 mins in presence of [gamma33P]ATP by scintillation counting method relative to control
[13] = molecular target: PI3-kinase p110-alpha/p85-alpha (Homo sapiens) (UniProt P27986+P42336); assay: Inhibition of human PI3K p110a/p85a at 10 uM using PI(4,5)P2:PS as substrate after 40 mins in presence of [gamma33P]ATP by scintillation counting method relative to control; assay type: protein-complex assay
[14] = molecular target: Serine/threonine-protein kinase B-raf (Homo sapiens, UniProt P15056, V600E); assay: Inhibition of human BRAF V600E mutant using MEK1 (K97R) as substrate after 40 mins in presence of [gamma33P]ATP by scintillation counting method
HOP-92 [15] = assay: Growth inhibition of human HOP92 cells assessed as cell growth at 0.01 uM incubated for 48 hrs by sulforhodamine B assay relative to control; assay type: functional; settings: HOP-92, 48 h, read-out: Activity
TK-10 [16] = assay: Growth inhibition of human TK10 cells assessed as cell growth at 0.01 uM incubated for 48 hrs by sulforhodamine B assay relative to control; assay type: functional; settings: TK-10, 48 h, read-out: Activity
HOP-92 [17] = assay: Growth inhibition of human HOP92 cells assessed as cell growth at 0.1 uM incubated for 48 hrs by sulforhodamine B assay relative to control; assay type: functional; settings: HOP-92, 48 h, read-out: Activity
TK-10 [18] = assay: Growth inhibition of human TK10 cells assessed as cell growth at 0.1 uM incubated for 48 hrs by sulforhodamine B assay relative to control; assay type: functional; settings: TK-10, 48 h, read-out: Activity

COc1cc(Cl)cc(-c2nn(-c3cccc(NC(=O)Nc4cc(C(F)(F)F)cc(C(F)(F)F)c4)c3)cc2-c2ccncc2)c1
IC50 (TK-10 [1]): 680 nM | GI50 (TK-10 [1]; read-out: GI50): 654 nM | CC50 (TK-10 [1]; read-out: LC50 (the source's name)): 42.5 nM | TGI (TK-10 [1]; read-out: TGI): 14600 nM | GI50 (TK-10 [1]; read-out: pGI50 (converted)): 708 nM | CC50 (TK-10 [1]; read-out: pLC50 (the source's name) (converted)): 42700 nM | TGI (TK-10 [1]; read-out: pTGI (converted)): 14800 nM | IC50 (RAW264.7): > 100000 nM | inhibition [2]: 49.2% | inhibition [3]: 57.8% | inhibition [4]: -7.47% | inhibition [5]: 0.9% | inhibition [6]: -8.66% | inhibition [7]: -1.71% | inhibition [8]: -2.82% | inhibition [9]: -0.94% | inhibition [10]: 10.7% | inhibition [11]: -5.83% | inhibition [12]: -9.26% | inhibition [13]: 16.8% | IC50 [14]: 390 nM | growth at 0.01 µM (HOP-92 [15]): 93% | growth at 0.01 µM (TK-10 [16]): 96% | growth at 0.1 µM (HOP-92 [17]): 83% | growth at 0.1 µM (TK-10 [18]): 90%
